These are literature values, as cited in patent US20060142395A1, “Modulation of intracellular calcium signaling by N-acylethanolamines” (University of North Texas Health Science Center, priority 2003, published 2006).

In this series the test system is rats and mice. The note with it: transient ischemia with reperfusion and permanent occlusion; cited from earlier work.

With `C[C@]12CC[C@@H]3c4ccc(O)cc4CC[C@H]3[C@@H]1CC[C@@H]2O` [17β-estradiol], the protection is recorded as above 50%.
